Experimental findings from ChEMBL document CHEMBL5291721, “A preclinical secondary pharmacology resource illuminates target-adverse drug reaction associations of marketed drugs” (Nat Commun, 2023) are described below.

Among the targets are Vasopressin V1a receptor (Homo sapiens, UniProt P37288); Mu-type opioid receptor (Homo sapiens, UniProt P35372); Adenosine receptor A2a (Homo sapiens, UniProt P29274).
The target of test [1] is Glutamate receptor ionotropic, NMDA 1 (Rattus norvegicus, UniProt P35439).
For test [2], the target named is T1, Equilibrative nucleoside transporter 1 (Homo sapiens, UniProt Q99808).
T1 sequence (Q99808 whole entry): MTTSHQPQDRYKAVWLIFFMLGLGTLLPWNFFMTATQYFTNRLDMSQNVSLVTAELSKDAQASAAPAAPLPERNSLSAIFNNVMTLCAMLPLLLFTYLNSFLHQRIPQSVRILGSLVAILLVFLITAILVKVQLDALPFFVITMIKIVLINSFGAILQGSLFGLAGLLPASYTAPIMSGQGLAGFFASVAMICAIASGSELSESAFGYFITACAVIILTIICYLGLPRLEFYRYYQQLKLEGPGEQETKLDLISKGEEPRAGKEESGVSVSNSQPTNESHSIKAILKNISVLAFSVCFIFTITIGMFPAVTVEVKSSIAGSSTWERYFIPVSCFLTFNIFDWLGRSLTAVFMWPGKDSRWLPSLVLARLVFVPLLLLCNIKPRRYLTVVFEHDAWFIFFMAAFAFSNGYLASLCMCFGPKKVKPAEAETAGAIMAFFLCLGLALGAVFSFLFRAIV

In the next test the target is T2, Adenosine receptor A3 (Homo sapiens, UniProt P0DMS8).
T2 sequence (P0DMS8 whole entry): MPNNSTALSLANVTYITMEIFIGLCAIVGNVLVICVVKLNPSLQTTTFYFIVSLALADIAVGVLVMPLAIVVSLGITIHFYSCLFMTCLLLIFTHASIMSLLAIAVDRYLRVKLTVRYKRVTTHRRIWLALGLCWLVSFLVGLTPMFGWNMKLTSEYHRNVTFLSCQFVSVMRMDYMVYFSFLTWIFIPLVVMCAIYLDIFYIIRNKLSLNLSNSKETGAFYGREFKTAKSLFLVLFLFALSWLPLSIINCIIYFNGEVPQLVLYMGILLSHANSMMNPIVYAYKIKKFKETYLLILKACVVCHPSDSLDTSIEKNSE

Test [3] addresses Gamma-aminobutyric acid receptor subunit alpha-1 (Rattus norvegicus, UniProt P62813). Format: functional.
Test [4] has as its target 3',5'-cyclic-AMP phosphodiesterase 4D (Homo sapiens, UniProt Q08499). The test is classed as functional.
Test [5] deals with T3, 5-hydroxytryptamine receptor 2B (Homo sapiens, UniProt P41595). The test is classed as functional, cell-based.
The next test has as its target T4, Progesterone receptor (Homo sapiens, UniProt P06401).
T4 sequence (P06401 whole entry): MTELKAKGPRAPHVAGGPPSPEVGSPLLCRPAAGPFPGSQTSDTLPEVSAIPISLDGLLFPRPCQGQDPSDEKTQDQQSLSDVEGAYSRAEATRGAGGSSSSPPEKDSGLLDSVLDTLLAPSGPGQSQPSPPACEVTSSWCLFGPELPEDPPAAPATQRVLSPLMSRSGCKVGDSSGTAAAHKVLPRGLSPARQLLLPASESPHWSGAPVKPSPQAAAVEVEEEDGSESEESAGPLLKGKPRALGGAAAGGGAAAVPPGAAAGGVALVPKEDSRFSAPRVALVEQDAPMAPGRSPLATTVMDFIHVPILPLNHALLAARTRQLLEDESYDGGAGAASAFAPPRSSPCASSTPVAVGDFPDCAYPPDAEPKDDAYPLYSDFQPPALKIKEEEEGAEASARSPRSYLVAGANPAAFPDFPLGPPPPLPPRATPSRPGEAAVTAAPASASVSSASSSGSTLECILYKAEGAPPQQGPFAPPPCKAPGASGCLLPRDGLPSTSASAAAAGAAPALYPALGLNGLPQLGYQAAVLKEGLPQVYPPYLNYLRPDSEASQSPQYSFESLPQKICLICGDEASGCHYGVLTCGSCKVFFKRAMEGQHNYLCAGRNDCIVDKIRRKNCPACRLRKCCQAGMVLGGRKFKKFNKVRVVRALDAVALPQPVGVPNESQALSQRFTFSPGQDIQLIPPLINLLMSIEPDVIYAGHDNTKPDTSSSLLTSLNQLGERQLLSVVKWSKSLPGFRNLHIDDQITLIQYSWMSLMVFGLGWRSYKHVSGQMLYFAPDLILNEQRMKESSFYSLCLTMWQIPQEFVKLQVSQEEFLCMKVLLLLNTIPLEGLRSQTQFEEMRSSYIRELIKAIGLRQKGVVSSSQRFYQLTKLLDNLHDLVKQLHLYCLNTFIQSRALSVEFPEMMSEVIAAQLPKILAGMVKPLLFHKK
The test is classed as functional.

Test [6] addresses T5, Muscarinic acetylcholine receptor M2 (Homo sapiens, UniProt P08172).
T5 sequence (P08172 whole entry): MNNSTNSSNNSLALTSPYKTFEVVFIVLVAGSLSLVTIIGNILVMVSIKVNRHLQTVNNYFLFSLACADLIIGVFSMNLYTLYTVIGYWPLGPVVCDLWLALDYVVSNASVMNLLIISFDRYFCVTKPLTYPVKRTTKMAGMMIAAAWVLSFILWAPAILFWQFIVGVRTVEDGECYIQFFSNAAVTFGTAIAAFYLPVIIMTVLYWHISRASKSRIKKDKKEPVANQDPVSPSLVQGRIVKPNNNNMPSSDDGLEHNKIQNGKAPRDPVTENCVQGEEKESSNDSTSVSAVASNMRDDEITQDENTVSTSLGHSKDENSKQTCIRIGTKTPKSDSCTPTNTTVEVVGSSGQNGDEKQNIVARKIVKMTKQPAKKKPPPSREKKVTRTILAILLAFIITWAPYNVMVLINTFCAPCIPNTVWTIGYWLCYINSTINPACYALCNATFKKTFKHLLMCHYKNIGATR
The test is classed as functional, cell-based.

Test [7] concerns the target T3, 5-hydroxytryptamine receptor 2B. Format: functional, cell-based. The source holds these as a separate data set.
Also: assay procedure not described here.

T3 sequence (P41595 whole entry): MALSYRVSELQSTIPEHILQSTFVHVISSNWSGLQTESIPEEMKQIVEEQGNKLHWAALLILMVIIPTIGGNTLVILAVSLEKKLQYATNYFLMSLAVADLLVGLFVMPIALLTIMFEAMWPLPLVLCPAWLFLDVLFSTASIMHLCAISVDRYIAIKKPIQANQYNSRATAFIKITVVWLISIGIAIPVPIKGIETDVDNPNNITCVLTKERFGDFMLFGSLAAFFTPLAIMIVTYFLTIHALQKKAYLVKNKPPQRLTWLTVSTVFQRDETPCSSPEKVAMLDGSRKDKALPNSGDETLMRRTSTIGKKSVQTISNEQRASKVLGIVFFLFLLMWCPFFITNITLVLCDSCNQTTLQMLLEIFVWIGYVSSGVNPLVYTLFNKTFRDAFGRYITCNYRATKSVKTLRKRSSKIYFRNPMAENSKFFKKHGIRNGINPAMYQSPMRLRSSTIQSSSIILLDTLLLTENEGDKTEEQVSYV
3',5'-cyclic-AMP phosphodiesterase 4D, sequence (Q08499 whole entry): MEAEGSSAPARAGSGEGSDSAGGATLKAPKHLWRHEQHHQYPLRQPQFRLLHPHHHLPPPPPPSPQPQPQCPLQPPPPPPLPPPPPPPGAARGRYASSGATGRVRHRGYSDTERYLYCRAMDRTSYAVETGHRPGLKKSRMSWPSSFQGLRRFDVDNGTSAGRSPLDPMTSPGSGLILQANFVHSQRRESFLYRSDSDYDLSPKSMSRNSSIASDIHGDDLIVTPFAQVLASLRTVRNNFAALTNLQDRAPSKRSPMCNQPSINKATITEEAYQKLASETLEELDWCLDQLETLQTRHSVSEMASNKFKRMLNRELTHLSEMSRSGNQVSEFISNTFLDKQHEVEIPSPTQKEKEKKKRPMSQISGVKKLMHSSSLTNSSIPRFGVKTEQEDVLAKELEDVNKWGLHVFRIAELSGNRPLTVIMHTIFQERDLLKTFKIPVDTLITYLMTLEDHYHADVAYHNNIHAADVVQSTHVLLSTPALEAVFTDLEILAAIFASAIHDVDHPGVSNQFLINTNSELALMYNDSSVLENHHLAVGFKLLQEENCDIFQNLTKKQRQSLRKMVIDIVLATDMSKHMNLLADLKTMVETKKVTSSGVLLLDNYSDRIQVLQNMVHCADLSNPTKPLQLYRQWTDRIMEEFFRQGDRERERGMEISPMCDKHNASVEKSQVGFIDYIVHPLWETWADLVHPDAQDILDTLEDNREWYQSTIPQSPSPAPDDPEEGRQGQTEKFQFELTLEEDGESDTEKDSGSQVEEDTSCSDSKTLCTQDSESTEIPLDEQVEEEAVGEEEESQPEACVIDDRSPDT
Gamma-aminobutyric acid receptor subunit alpha-1, sequence (P62813 whole entry): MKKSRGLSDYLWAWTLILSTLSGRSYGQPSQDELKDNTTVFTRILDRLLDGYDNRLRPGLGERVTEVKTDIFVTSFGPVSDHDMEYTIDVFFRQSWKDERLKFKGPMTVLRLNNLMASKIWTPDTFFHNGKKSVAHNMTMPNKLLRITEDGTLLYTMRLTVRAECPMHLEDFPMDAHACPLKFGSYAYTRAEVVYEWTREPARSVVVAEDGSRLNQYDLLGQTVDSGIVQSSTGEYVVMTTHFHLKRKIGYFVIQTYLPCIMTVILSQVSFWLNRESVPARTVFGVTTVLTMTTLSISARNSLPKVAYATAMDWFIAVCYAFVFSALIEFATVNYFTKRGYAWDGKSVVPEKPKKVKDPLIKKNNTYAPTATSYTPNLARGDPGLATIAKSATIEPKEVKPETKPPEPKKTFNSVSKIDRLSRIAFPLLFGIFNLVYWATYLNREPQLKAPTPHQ
Mu-type opioid receptor, sequence (P35372 whole entry): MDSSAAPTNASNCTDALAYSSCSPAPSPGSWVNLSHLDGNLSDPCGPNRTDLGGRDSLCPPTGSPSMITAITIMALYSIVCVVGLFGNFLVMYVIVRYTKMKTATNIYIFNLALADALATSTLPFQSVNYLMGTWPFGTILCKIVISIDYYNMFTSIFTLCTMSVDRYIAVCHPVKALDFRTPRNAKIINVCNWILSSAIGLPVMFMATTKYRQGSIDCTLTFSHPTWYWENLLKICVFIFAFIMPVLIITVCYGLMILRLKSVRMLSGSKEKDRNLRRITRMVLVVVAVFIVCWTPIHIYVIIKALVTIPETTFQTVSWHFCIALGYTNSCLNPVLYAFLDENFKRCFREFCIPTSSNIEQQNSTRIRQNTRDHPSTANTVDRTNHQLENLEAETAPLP
Vasopressin V1a receptor, sequence (P37288 whole entry): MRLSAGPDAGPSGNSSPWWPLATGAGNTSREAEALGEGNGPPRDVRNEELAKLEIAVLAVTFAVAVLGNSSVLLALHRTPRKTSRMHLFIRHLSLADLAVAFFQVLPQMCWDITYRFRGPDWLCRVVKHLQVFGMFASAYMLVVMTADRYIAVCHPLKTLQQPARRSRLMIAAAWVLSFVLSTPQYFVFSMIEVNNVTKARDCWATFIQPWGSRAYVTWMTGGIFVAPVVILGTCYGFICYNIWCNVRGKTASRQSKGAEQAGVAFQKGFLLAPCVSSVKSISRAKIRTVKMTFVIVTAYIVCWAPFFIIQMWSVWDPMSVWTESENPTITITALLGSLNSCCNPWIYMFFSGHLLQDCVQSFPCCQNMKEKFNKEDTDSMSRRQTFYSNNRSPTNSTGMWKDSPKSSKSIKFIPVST
Adenosine receptor A2a, sequence (P29274 whole entry): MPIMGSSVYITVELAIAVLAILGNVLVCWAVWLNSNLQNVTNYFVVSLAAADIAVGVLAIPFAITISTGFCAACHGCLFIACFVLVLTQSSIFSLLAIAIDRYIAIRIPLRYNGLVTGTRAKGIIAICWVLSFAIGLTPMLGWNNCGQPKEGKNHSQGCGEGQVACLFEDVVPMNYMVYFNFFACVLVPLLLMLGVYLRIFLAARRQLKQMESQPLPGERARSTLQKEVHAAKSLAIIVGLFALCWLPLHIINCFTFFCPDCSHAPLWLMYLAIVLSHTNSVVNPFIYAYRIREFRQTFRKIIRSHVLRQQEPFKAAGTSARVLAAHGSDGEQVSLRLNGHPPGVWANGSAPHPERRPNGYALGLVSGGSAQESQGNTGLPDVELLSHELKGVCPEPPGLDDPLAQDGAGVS

For `CCCc1cc(=O)[nH]c(=S)[nH]1` [PROPYLTHIOURACIL], the AC50 (in general, the concentration at which the activity in the assay is half-maximal) in [1] is greater than 10 µM; in [2], greater than 10 µM; at Adenosine receptor A3, greater than 10 µM; at Vasopressin V1a receptor it was greater than 10 µM; on Mu-type opioid receptor it was greater than 30 µM; on Adenosine receptor A2a it was greater than 10 µM. Also, the AC50 in test [3] was greater than 10 µM; in [4], greater than 30 µM; in [5], greater than 10 µM; on Progesterone receptor, greater than 10 µM; in test [6], greater than 10 µM; in [7] it was greater than 10 µM.
